Data from publication PMC2441954, “Phase I pharmacokinetic and pharmacodynamic study of the prenyl transferase inhibitor AZD3409 in patients with advanced cancer” (British Journal of Cancer, 2008).

Key:
[1] = target: GGTase-1; set-up: method as in Stephens et al, 2003; conditions: Ki4B-Ras as substrate; ref Stephens et al, 2003; cited from earlier work
[2] = target: FTase; set-up: method as in Stephens et al, 2003; conditions: Ki4B-Ras as substrate; ref Stephens et al, 2003; cited from earlier work
[3] = target: T1, FTase (Homo sapiens, UniProt P49356); assay: FTase activity in PBMC lysates of patients (lamin B or K-Ras substrate), PK/PD Emax model; assay type: in vivo
T1 construct: endogenous in cells; host or cells: peripheral blood mononuclear cells (PBMCs) of treated patients, lysed
Description: Prior to and 2 h after intake on days 1, 2 (only predose), 8 and 22, whole-blood samples of 22.5 ml were collected in heparinised tubes for FTase activity determination in peripheral blood mononuclear cells (PBMCs). Within 30 min, the PBMC fraction was isolated using Accuspin tubes (Sigma). The cell pellet was resuspended in 100 μl lysis buffer (PBS containing 1% (v/v) Triton X-100, 0.5% (w/v) sodium deoxycholate, 0.1% (w/v) sodium dodecylsulphate and 1% (v/v) aprotinin) and stored at −70°C.
FTase activity was measured by adding 5 μl of PBMC lysate, 5 μl of lysis buffer and 10 μl of water to each well. The lysates were preincubated for 10 min prior to the addition of 20 μl of substrate solution (either lamin B or K-Ras). The reaction was initiated by the addition of 10 μl of radiolabelled farnesylpyrophosphate (fpp). The wells were incubated for 40 min at 37°C. The reaction was stopped by the addition of 100 μl of 1.5 M HCl in ethanol. The wells were stored at 4°C for 1 h and then processed using the Tomtec Harvester 96. The filter plates were dried at 37°C for 15 min, 0.35 μl MicroScint was added to each filter well and the radioactivity was counted. Each lysate was analysed in triplicate. Blanks consisted of the same reaction mixture without the substrate.
Linear mixed effects models were constructed to determine the effect of time on the enzyme activity levels. In these models, the daily dose, number of applications, time (days), measurement pre- or postdrug intake, gender and age were considered to be a fixed effect, and the patient variable was considered to be a random effect. Owing to the distribution of the response variables, square root variables were applied. Statistical analysis was performed with SAS. To determine the correlation of the dose level and the enzyme inhibition, a baseline was added to the described models.
Pharmacokinetic-pharmacodynamic correlations between the active acid metabolite and decrease in FTase activity were fitted with WinNonlin software. Only patients with a basal FTase activity that was higher than 10 pg fpp per mg protein per min were included in the model. This cutoff value was arbitrary and was chosen based on the available data (lamin B; mean: 28.0, SD: 14.2, median: 27.8, 25% percentile: 19.1 and K-Ras; mean: 29.3, SD: 17.8, median: 25.6, 25% percentile: 16.7). The decision to set a minimum baseline FTase activity implicates that the model can only be used for patients with a minimum FTase activity of 10 pg fpp per mg protein per min.

[4] = test system: cytochrome P450; set-up: method as in unpublished data; conditions: once daily oral dosing to rats for 28 days; ref unpublished data; cited from earlier work
[5] = test system: H-Ras-transformed mouse 3T3 fibroblasts (Hras5) xenografts; set-up: method as in Stephens et al, 2003; Kelly et al, 2005; conditions: mice bearing Hras5 xenografts; ref Stephens et al, 2003; Kelly et al, 2005; cited from earlier work
[6] = test system: 253J-BV urothelial cells xenografts; set-up: method as in Stephens et al, 2003; Kelly et al, 2005; conditions: mice bearing 253J-BV xenografts; ref Stephens et al, 2003; Kelly et al, 2005; cited from earlier work
[7] = test system: RT-112 urothelial cells xenografts; set-up: method as in Stephens et al, 2003; Kelly et al, 2005; conditions: mice bearing RT-112 xenografts; ref Stephens et al, 2003; Kelly et al, 2005; cited from earlier work
[8] = test system: tumour cells; set-up: method as in Kelly et al, 2005; conditions: in vitro; corresponds to the μM values; ref Kelly et al, 2005; cited from earlier work
[9] = healthy male volunteers; earlier trial, no reference given; cited from earlier work
[10] = test system: solid malignant tumour; assay: Tumour response (RECIST) in phase I patients; assay type: in vivo, human
Description: Pretreatment evaluation included a complete medical history and physical examination. Measurable and evaluable disease was documented before the start of the study and during the study as a basis for the assessment of clinical activity of the treatment. Tumour response was recorded according to RECIST criteria ([Therasse et al, 2000]). Toxicity was monitored at each visit. All toxicities observed were graded according to the Common Toxicity Criteria, version 2.0 ([National Cancer Institute, 1998]). DLT was defined as any of the following events during the first treatment cycle: grade 3 or 4 anaemia or thrombocytopaenia, febrile neutropaenia grade 3, or grade 4 neutropaenia, grade 3 or 4 biochemical toxicity, grade 2 (or worse) nausea and vomiting despite optimal antiemetic therapy, grade 3 or 4 diarrhoea despite optimal loperamide support, failure to take study medication for 7 days or more within the first treatment cycle due to drug-related toxicity or any CTC grade 3 or 4 nonhaematological toxicity (excluding alopaecia). The MTD was defined as the dose below the dose at which two or three of three, or two or more of six patients experienced DLT during cycle 1.

[11] = set-up: method as in Kelly et al, 2005; conditions: rats, oral dosing, pilot mass balance study; ref Kelly et al, 2005; cited from earlier work
[12] = test system: Calu-6 xenograft; set-up: method as in unpublished data; conditions: Calu-6 xenograft model, ref unpublished data, cited from earlier work

| Structure (SMILES) | Ki [1] [nM] | Ki [2] [nM] | plasma concentration at which 90% of the maximal biological effect is reached ([3]; Emax model for lamin B) | EC50 ([3]; Emax model, lamin B substrate, PBMC lysate, day 1, 2 h after intake, read-out: EC50 (plasma concentration at 50% of maximal FTase inhibition) (converted)) [nM] | Emax ([3]; human, Emax model, lamin B substrate, PBMC lysate, day 1, 2 h after intake, vs AZD3409 acid plasma concentration, read-out: maximal effect (Emax), maximal FTase inhibition) [%] | share of the maximally achievable FTase inhibition at mean trough concentrations ([3]; twice daily dosing levels, Emax model lamin B) | changes in cytochrome P450 content or enzyme activity [4] | tumour weight [5] | tumour weight [6] | tumour weight [7] | IC50 inhibition of cell proliferation of tumour cells, converted [8] [µg/mL] | degree of FTase inhibition in PBMCs after intake vs prior to intake ([3]; each day, lamin B and K-Ras substrates, mixed effects model) | dose at which diarrhoea was dose limiting [9] [mg once daily] | maximum tolerated single dose [9] [mg] | objective tumour response ([10]; 18 evaluable patients after 4–14 weeks of treatment) | patients with stable disease ([10]; out of 16 patients, after approximately 2 months) | patients with stable disease ([10]; three of 18 evaluable patients, stable for 47, 48 and 76 days) [%] | given radioactivity excreted in the urine [11] [%] | reduction of the tumour volume ([12]; associated with 66% FTase inhibition) [%] | inhibition of FTase [12] [%] |
| --- | --- | --- | --- | --- | --- | --- | --- | --- | --- | --- | --- | --- | --- | --- | --- | --- | --- | --- | --- | --- |
| CSCC[C@H](NC(=O)c1cc(NC[C@@H]2C[C@H](S)CN2)ccc1CCc1ccc(F)cc1)C(=O)O [AZD3409 acid] | 8 | < 1 | approximately 100 ng ml^−1 | 18.8 | 49 ± 11 | at least 75% | – | – | – | – | – | – | – | – | – | – | – | – | – | – |
| CSCC[C@H](NC(=O)c1cc(NC[C@@H]2C[C@H](SC(=O)c3cccnc3)CN2)ccc1CCc1ccc(F)cc1)C(=O)OC(C)C [AZD3409] | – | – | – | – | – | – | no biologically significant changes | significant reduction of tumour weight | significant reduction of tumour weight | significant reduction of tumour weight | 0.035 to 3.5 | significantly higher than prior to intake | 2500 | 1750 | No objective tumour response was observed | 3 | 17 | 1 | 15 | 66 |
